# Measurements taken from paper PMC6747070, “β-Glucose-1,6-Bisphosphate Stabilizes Pathological Phophomannomutase2 Mutants In Vitro and Represents a Lead Compound to Develop Pharmacological Chaperones for the Most Common Disorder of Glycosylation, PMM2-CDG” (International Journal of Molecular Sciences, 2019).
# What was measured:
# PMM2 (wt-PMM2) [1] = biological target: T1, PMM2 (wt-PMM2) (Homo sapiens, UniProt O15305); assay: thermal shift assay (Sypro Orange); assay type: binding; conditions: 0.5 mM ligand, without vanadate; Hepes 20 mM pH 7.5, Mg2+, NaCl, DTT
# T1 construct: recombinant, vector Pet22b+, E. coli BL21(DE3), no tag mentioned; homodimer; DEAE-Sepharose and Superdex 75 purification
# T1 sequence (O15305 2-246): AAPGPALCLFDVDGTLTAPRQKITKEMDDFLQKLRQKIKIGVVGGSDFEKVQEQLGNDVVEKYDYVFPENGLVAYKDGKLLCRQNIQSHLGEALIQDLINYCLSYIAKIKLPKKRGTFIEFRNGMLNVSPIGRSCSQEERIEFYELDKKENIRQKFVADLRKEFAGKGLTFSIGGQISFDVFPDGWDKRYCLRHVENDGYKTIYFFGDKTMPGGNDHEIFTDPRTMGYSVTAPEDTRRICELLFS
# PMM2 (wt-PMM2) [2] = biological target: T1, PMM2 (wt-PMM2); assay: […]-NMR phosphomannomutase assay; assay type: biochemical; conditions: inhibitor; βG16P 5 or 50 μM; 1 mM αM1P, activator αG16P 5 μM; Hepes pH 7.3, MgCl2 1 mM, 32 °C
Structure (SMILES),dTm (PMM2 (wt-PMM2) [1]),inhibition (PMM2 (wt-PMM2) [2])
O=P(O)(O)O[C@H]1O[C@H](CO)[C@@H](O)[C@H](O)[C@H]1O [αG1P],αG1P is a stabilizer of PMM2 too,–
O=P(O)(O)OC[C@H]1O[C@@H](OP(=O)(O)O)[C@H](O)[C@@H](O)[C@@H]1O [βG16P],–,βG16P is not an activator and show that it inhibits PMM2
